Assay results published in ChEMBL document CHEMBL1201862, “PubChem BioAssay data set” (2004).
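Assay format: 96-well plates, 48-hour exposure. At the GI50, growth is halved.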 Calls of active or inactive are those of the source. Cut-off read from the data, not from the text of the source: active = GI50 up to about 1.1 µM and inactive = higher.

How the values were obtained:
Assay in all cases: inhibition of tumour cell growth, NCI panel, 48 h
[1] = tested on: SNB-75
[2] = tested on: CCRF-CEM
[3] = tested on: CAKI-1
[4] = tested on: NCI-H23
[5] = tested on: EKVX
[6] = tested on: UACC-62
[7] = tested on: SK-MEL-5
[8] = tested on: HL-60
[9] = tested on: UACC-257
[10] = tested on: OVCAR-8
[11] = tested on: A498
[12] = tested on: MCF7
[13] = tested on: Hs-578T
[14] = tested on: MDA-MB-231
[15] = tested on: SF-295
[16] = tested on: U-251
[17] = tested on: M14
[18] = tested on: RPMI-8226
[19] = tested on: UO-31
[20] = tested on: SF-539
[21] = tested on: NCI/ADR-RES
[22] = tested on: SF-268
[23] = tested on: SK-OV-3
[24] = tested on: SK-MEL-2
[25] = tested on: K562
[26] = tested on: HT-29
[27] = tested on: RXF 393
[28] = tested on: T47D
[29] = tested on: 786-0
[30] = tested on: SNB-19
[31] = tested on: HCC 2998
[32] = tested on: Malme-3M
[33] = tested on: NCI-H460
[34] = tested on: TK-10
[35] = tested on: HOP-92
[36] = tested on: NCI-H522
[37] = tested on: OVCAR-4
[38] = tested on: DU-145
[39] = tested on: HCT-116
[40] = tested on: SR
[41] = tested on: HCT-15
[42] = tested on: SK-MEL-28
[43] = tested on: BT-549
[44] = tested on: LOX IMVI
[45] = tested on: SN12C
[46] = tested on: OVCAR-5
[47] = tested on: HOP-62
[48] = tested on: SW-620
[49] = tested on: IGROV-1
[50] = tested on: OVCAR-3
[51] = tested on: MOLT-4
[52] = tested on: MDA-MB-435
[53] = tested on: ACHN
[54] = tested on: KM12
[55] = tested on: MDA-N
[56] = tested on: COLO 205
[57] = tested on: NCI-H226
[58] = tested on: A549
[59] = tested on: PC-3

**Q.** Which results are given for `Fc1cc(C2=C[C@H](c3ccc(Cl)cc3)NC(=S)N2)c(Cl)cc1Cl`?
**A.** GI50 [1]: 37.6 µM (inactive); GI50 [2]: 28.9 µM (inactive); GI50 [3]: 43 µM (inactive); GI50 [4]: 63.8 µM (inactive); GI50 [5]: 31.6 µM (inactive); GI50 [6]: 57 µM (inactive); GI50 [7]: 11.6 µM (inactive); GI50 [8]: 20.6 µM (inactive); GI50 [9]: 31.6 µM (inactive); GI50 [10]: 39.9 µM (inactive); GI50 [11]: 27.7 µM (inactive); GI50 [12]: 31.2 µM (inactive); GI50 [13]: > 100 µM (inactive); GI50 [14]: 23.7 µM (inactive); GI50 [15]: 28.2 µM (inactive); GI50 [16]: 29.6 µM (inactive); GI50 [17]: 54.3 µM (inactive); GI50 [18]: 14.9 µM (inactive); GI50 [19]: 42.2 µM (inactive); GI50 [20]: > 100 µM (inactive); GI50 [21]: 64.1 µM (inactive); GI50 [22]: 65.8 µM (inactive); GI50 [23]: > 100 µM (inactive); GI50 [24]: 27.2 µM (inactive); GI50 [25]: 5.62 µM (inactive); GI50 [26]: 36.5 µM (inactive); GI50 [27]: 31.1 µM (inactive); GI50 [28]: 19.2 µM (inactive); GI50 [29]: 47.9 µM (inactive); GI50 [30]: 76.7 µM (inactive); GI50 [31]: 23.3 µM (inactive); GI50 [32]: > 100 µM (inactive); GI50 [33]: 34 µM (inactive); GI50 [34]: 45.1 µM (inactive); GI50 [35]: 27.2 µM (inactive); GI50 [36]: 34 µM (inactive); GI50 [37]: 35.7 µM (inactive); GI50 [38]: 62.8 µM (inactive); GI50 [39]: 35.8 µM (inactive); GI50 [40]: 40.6 µM (inactive); GI50 [41]: 46.8 µM; GI50 [42]: > 100 µM (inactive); GI50 [43]: > 100 µM (inactive); GI50 [44]: 48.6 µM (inactive); GI50 [45]: 29.3 µM (inactive); GI50 [46]: > 100 µM (inactive); GI50 [47]: 48.2 µM (inactive); GI50 [48]: 70.6 µM (inactive); GI50 [49]: 41.2 µM (inactive); GI50 [50]: 33.1 µM (inactive); GI50 [51]: 15.6 µM (inactive); GI50 [52]: 43.9 µM (inactive); GI50 [53]: 37.8 µM (inactive); GI50 [54]: 49.4 µM (inactive); GI50 [55]: 47.4 µM (inactive); GI50 [56]: 47 µM (inactive); GI50 [57]: 88.7 µM (inactive); GI50 [58]: 47.3 µM (inactive); GI50 [59]: 28.3 µM (inactive)

**Q.** What does the source list for `Cc1cc(C)c(C[C@H]2COC(=O)[C@]2(O)Cc2c(C)cc(C)cc2C)c(C)c1`?
**A.** GI50 [1]: 19.4 µM (inactive); GI50 [2]: 31.7 µM (inactive); GI50 [3]: 18.6 µM (inactive); GI50 [4]: 21 µM (inactive); GI50 [5]: 12.6 µM (inactive); GI50 [6]: 13.7 µM (inactive); GI50 [7]: 17 µM (inactive); GI50 [8]: 14.7 µM (inactive); GI50 [9]: 17.7 µM (inactive); GI50 [10]: 23.6 µM (inactive); GI50 [11]: 14.6 µM (inactive); GI50 [12]: 18.1 µM (inactive); GI50 [13]: 17.7 µM (inactive); GI50 [14]: 16.7 µM (inactive); GI50 [15]: 16.9 µM (inactive); GI50 [16]: 18.9 µM (inactive); GI50 [17]: 18.3 µM (inactive); GI50 [18]: 25.2 µM (inactive); GI50 [19]: 19.6 µM (inactive); GI50 [20]: 23.9 µM (inactive); GI50 [21]: 15.6 µM (inactive); GI50 [22]: 14.9 µM (inactive); GI50 [23]: 17.9 µM (inactive); GI50 [24]: 23.1 µM (inactive); GI50 [25]: 25.2 µM (inactive); GI50 [26]: 27.9 µM (inactive); GI50 [27]: 11.2 µM (inactive); GI50 [28]: 4.67 µM (inactive); GI50 [29]: 20.8 µM (inactive); GI50 [30]: 21.6 µM (inactive); GI50 [31]: 13.7 µM (inactive); GI50 [32]: 13.9 µM (inactive); GI50 [33]: 16.8 µM (inactive); GI50 [34]: 21.6 µM (inactive); GI50 [35]: 14.2 µM (inactive); GI50 [36]: 18.7 µM (inactive); GI50 [37]: 12.9 µM (inactive); GI50 [38]: 15.2 µM (inactive); GI50 [39]: 20.7 µM (inactive); GI50 [40]: 41.5 µM (inactive); GI50 [41]: 17.3 µM; GI50 [42]: 24.7 µM (inactive); GI50 [43]: 18.4 µM (inactive); GI50 [44]: 17.8 µM (inactive); GI50 [45]: 19.4 µM (inactive); GI50 [46]: 17.1 µM (inactive); GI50 [47]: 19.2 µM (inactive); GI50 [48]: 20.9 µM (inactive); GI50 [50]: 15 µM (inactive); GI50 [51]: 26.7 µM (inactive); GI50 [52]: 18.3 µM (inactive); GI50 [53]: 18.2 µM (inactive); GI50 [54]: 18.3 µM (inactive); GI50 [55]: 19.8 µM (inactive); GI50 [56]: 18.7 µM (inactive); GI50 [57]: 17 µM (inactive); GI50 [58]: 15.7 µM (inactive); GI50 [59]: 15.1 µM (inactive)
